From publication PMC9862096, “Interaction of a Homologous Series of Amphiphiles with P-glycoprotein in a Membrane Environment—Contributions of Polar and Non-Polar Interactions” (Pharmaceutics, 2023)

Columns and labels:
[1] = Critical aggregation concentration from NBD fluorescence (literature); type: physicochemical; conditions: extrapolated from the co-solvent effect on NBD–Cn
Excerpt: One important aspect which is usually overlooked in the studies of interactions with P–gp is whether the molecule of interest is in its monomeric state or aggregated. Some studies with detergents have included information regarding the formation of micelles and concluded that a complex effect on the ATPase activity (enhancement and inhibition) is observed even for concentrations below their CMC [21, 32, 91]. However, small aggregates are formed at concentrations several orders of magnitude smaller than the concentration at which micelles are detectable (their CMC). The aggregation behavior of the NBD amphiphiles used in this study was characterized by changes in the fluorescence properties of the NBD group and is, therefore, sensitive to the formation of small aggregates including dimers. The critical aggregation concentrations (CAC) at 25 °C are 1, 4, and 250 μM for NBD–C8, NBD–LysoMPE, and NBD–C4, respectively. […] An increase to at least 24 µM is thus predicted for NBD–LysoMPE.

[2] = cited from earlier work
[3] = Association (partition) of the NBD amphiphiles with native membranes, NBD fluorescence; type: physicochemical, High-Five insect cells; conditions: for LogKP, association with the native membranes: 37 °C, simplified ATPase assay buffer; for KPW→M: aqueous phase to native membrane
Method: (§1) The membranes were diluted to the chosen concentration with simplified ATPase assay buffer and warmed to 37 °C. The NBD amphiphiles were added from stocks in DMSO (final DMSO 1% v/v) by squirting the required volume into the membrane solution under gentle vortex. Fluorescence intensity was measured after 15 to 30 min incubation at 37 °C using a Cary Eclipse spectrofluorimeter (Varian, Singapore). The path length of the sample container was selected to guarantee that scattering at the excitation wavelength was smaller than 0.1 while maintaining a good signal/noise ratio (3, 5, or 10 mm).
(§2) The increase in fluorescence of the NBD amphiphiles when associated with the model membranes was well described by a simple partition (Equation (S3)). The low affinity of the less lipophilic amphiphiles for the native membranes required the use of high membrane concentrations, and the fluorescence was measured with the plate reader SpectraMax iD5 (Molecular Devices, Berkshire, UK), where the reading setup is not very sensitive to scatter. To guarantee that the high scatter intensity was not leading to artifacts in the measured fluorescence intensity of NBD–C4, titrations of NBD-C6 and NBD–C8 were also performed in the same plate. For these two latter amphiphiles, the results obtained for the partition coefficient were similar to those obtained for experiments with low scatter intensity. A small decrease in the fluorescence intensity from NBD–C8 was nevertheless observed at very high scatter intensities (OD ≥ 0.5), which was used to correct the signal from the less lipophilic amphiphiles, see Supplementary Information (Figure S5 and Equation (S4)). The molar volume considered for the lipid was 0.8 dm^3/mol, and 1.2 g/mL was considered for the density of the membrane proteins.
S3 – Partition of the NBD amphiphiles to lipid bilayers and native membranes The fluorescence increase that accompanies the association of the NBD amphiphiles with the model membra nes was well defined by a simple partition, equation S3. […]
where IfW and If M are respec ti vel y the fluorescence intensity when all fluorescent amphiphile is in the aqueous phase and ass oci ated with the membranes, LbK is the partition co eff icient P between the aqueous and the lipid bilayer, V is the molar vo l u m e of the lipid when in the lipid L bi l ayer, and [L] is the lipid concentration.
To characterize the association of the NBD amphiphiles with the native membranes the whole membrane vo lume was considere d, including the lipid bilayer and the membrane proteins. For the ca se of the less lipophilic amphiphiles NBD‐C4 and NBD‐C6, a sig nif ica nt scatter from the […]
both to the larger size of the vesicles (ca 1 µm diameter, [1]) and to the high refractive index of the native membranes. The magnitude of the scatter effect was quantified through the best fit […]
partition to the membranes at co n ce ntrations where scatter is not significant. The modified […]
where s is the scatter correction factor for a given concentration of native membranes, If W and IfM are respectively the fluorescence intensity when all fluorescent amphiphile is in the aqueous phase and associated with the membranes, WMK → is the partition coefficient between the P aqueous phase and the native membrane, V is the molar volume of the lipid when in the L membrane and [L] the molar concentration of the membrane lipids, V is the vo lume occupied P by 1 g of membrane protein (assuming a density of 1.2 g/mL) and [P] is the protein concentration in units of ma ss per volume.
Typical results obtained for the variation of the fluorescence intensity at 540 nm of the NBD‐Cn fluorophores equilibrated with increasing concentrations of native membranes, are shown in figure S3. The fluorescence intensity was measured in black 96 well plates with the plate reader […]
SpectraMax iD5. The NBD‐Cn concentrations we re 0.5 µM for NBD‐C8 , 1 µM for NBD‐C6, and 2 µM for NBD‐C4, and the total volume per well was 150 µL. […]

P–gp = test: Partition coefficient to membrane protein from Equations (1) and (2), binding to P–gp only; type: physicochemical, mouse; conditions: binding to the protein P–gp only; for KPW→P: aqueous phase to protein; for KPLb→P: lipid bilayer to protein
Excerpt: (§3) From the partition coefficient obtained for the native membranes, KPW→M , and that for the model lipid bilayers, KPW→Lb , one can calculate the partition coefficient between the aqueous phase and the proteins in the membrane, KPW→P , and from the lipid bilayer to the proteins, KPLb→P , Equations (1) and (2), [40]. (1) KPW→M VM=KPW→PVP+KPW→Lb VLb (2) KPLb→P=KPW→P/KPW→Lb
(§4) In Equation (1) it is necessary to include the volume occupied by the proteins, and the values obtained will, therefore, depend on whether it is considered that the amphiphile may interact with all proteins in the membrane or with P–gp only.

[4] = Association (partition) with model membranes (LUVs POPE:POPC:POPS 45:35:20); type: physicochemical; conditions: aqueous phase to model lipid bilayer
Method: The model membranes with a phospholipid composition representative of that of the native membranes (POPE:POPC:POPS 45:35 20) were prepared from stock solutions of the required lipids in chloroform or in chloroform/methanol (87/13, v/v), as described before. The solvent-free lipid residue was hydrated at 40 °C with previously heated simplified ATPase assay buffer (with all components except Ouabain and DTT). Large Unilamelar Vesicles were prepared by extrusion through two-staked polycarbonate filters (100 nm pore diameter), and the size of the LUVs was analyzed by dynamic light scattering (Zetasizer Nano ZS, Malvern, UK) being close to the filter pore size.
as §1, §2
S3 – Partition of the NBD amphiphiles to lipid bilayers and native membranes
The fluorescence increase that accompanies the association of the NBD amphiphiles with the
model membra nes was well defined by a simple partition, equation S3.
If 1540 nm Lb= + S3, KVL[]
where IfW and If M are respec ti vel y the fluorescence intensity when all fluorescent amphiphile is
in the aqueous phase and ass oci ated with the membranes, LbK is the partition co eff icient P
between the aqueous and the lipid bilayer, V is the molar vo l u m e of the lipid when in the lipid L
bi l ayer, and [L] is the lipid concentration. […]

[5] = Partition coefficient to membrane proteins from Equations (1) and (2), all membrane proteins with equal affinity; type: physicochemical, High-Five insect cells; conditions: binding to all membrane proteins with equal affinity; for KPW→P: aqueous phase to proteins; for KPLb→P: lipid bilayer to proteins
Excerpt: as §3, §4

[6] = section: binding to all membrane proteins with equal affinity
[7] = section: binding to the protein P–gp only
[8] = membrane volume = phospholipid bilayer and P–gp (binding to the protein P–gp only)
[9] = membrane volume = phospholipid bilayer and all proteins (binding to all membrane proteins with equal affinity)

CAC predicted in the presence of co-solvents [1] | Structure (SMILES) | characteristic time of translocation between membrane leaflets [2] | LogKP, association with the native membranes [3] | KPW→P (P–gp) | KPLb→P (P–gp) | KPW→Lb [4, 6] | KPW→Lb [4, 7] | KPW→M [3, 8] | KPW→M [3, 9] | KPW→P [5] | KPLb→P [5] | time for equilibration between both membrane leaflets (translocation) ([2]; Section 3.4 and ref 77)
at least 24 µM | CCCCCCCCCCCCCC(=O)OCC(O)COP(=O)(O)OCCNc1ccc([N+](=O)[O-])c2nonc12 (stereo not shown) [NBD–LysoMPE] | several hours | 4.34 ± 0.25 | – | – | – | – | – | – | – | – | –
– | CCCCNc1ccc([N+](=O)[O-])c2nonc12 [NBD–C4] | – | 2.75 ± 0.20 | 6.9 × 10^4 | 176 | 3.9 × 10^2 | 3.9 × 10^2 | 1.4 × 10^3 | 5.7 × 10^2 | 6.9 × 10^2 | 1.8 | –
– | CCCCCCCCNc1ccc([N+](=O)[O-])c2nonc12 [NBD–C8] | – | 3.95 ± 0.14 | 2.3 × 10^5 | 12 | 1.9 × 10^4 | 1.9 × 10^4 | 2.2 × 10^4 | 9.0 × 10^3 | 2.3 × 10^3 | 0.12 | within a few seconds
